Key:
in vitro = conditions: human, uninfected SupT1 cells
[1] = system: downmodulation of MHC-I molecules expressed on the surface of HIV infected SupT1 cells; assay: cells; conditions: for EC50: Human immunodeficiency virus 1, SUP-T1, read-out: EC50 for inhibition of MHC-I downmodulation utilizing the R1 parameter; for activity at 100 µM: Human immunodeficiency virus 1, SUP-T1, read-out: R1 @ 100 μM (R1 value for MHC-I downmodulation as % of the vehicle control)

## CC1(C)Cc2cccc(OCC(=O)N(Cc3ccc[nH]3)c3nc4c(s3)CCCC4)c2O1 [Compound 51, N-((1H-Pyrrol-2-yl)methyl)-2-((2,2-dimethyl-2,3-dihydrobenzofuran-7-yl)oxy)-N-(4,5,6,7-tetrahydrobenzo[d]thiazol-2-yl)acetamide]
In vitro
  CC50 at 48 h: > 125 µM
[1]
  EC50: 0.015 µM

## CC1(C)Cc2cccc(OCC(=O)N(Cc3ccncc3)c3nc4c(s3)CCCC4)c2O1 [Compound 52, 2-((2,2-Dimethyl-2,3-dihydrobenzofuran-7-yl)oxy)-N-(pyridin-4-ylmethyl)-N-(4,5,6,7-tetrahydrobenzo[d]thiazol-2-yl)acetamide]
In vitro
  CC50 at 48 h: 1 µM
[1]
  EC50: 0.032 µM

## COc1ccccc1N(C(=O)COc1cccc2c1OC(C)(C)C2)c1nc(C)cs1 [Compound 55, 2-((2,2-Dimethyl-2,3-dihydrobenzofuran-7-yl)oxy)-N-(2-methoxyphenyl)-N-(4-methylthiazol-2-yl)acetamide]
In vitro
  CC50 at 48 h: > 125 µM
[1]
  EC50: 0.21 µM

## CCCN(C(=O)COc1cccc2c1OC(C)(C)C2)c1nc2c(s1)CCCC2 [Compound 57, 2-((2,2-dimethyl-2,3-dihydrobenzofuran-7-yl)oxy)-N-propyl-N-(4,5,6,7-tetrahydrobenzo[d]thiazol-2-yl)acetamide]
In vitro
  CC50 at 48 h: > 125 µM
[1]
  EC50: 0.002 µM

## Cc1csc(N(C(=O)COc2cccc3c2OC(C)(C)C3)c2ccc(F)cc2)n1 [Compound 58, 2-((2,2-Dimethyl-2,3-dihydrobenzofuran-7-yl)oxy)-N-(4-fluorophenyl)-N-(4-methylthiazol-2-yl)acetamide]
In vitro
  CC50 at 48 h: > 100 µM
[1]
  EC50: 0.29 µM

## Cc1csc(N(C(=O)COc2cccc3c2OC(C)(C)C3)c2ccc(Cl)cc2)n1 [Compound 59, N-(4-Chlorophenyl)-2-((2,2-dimethyl-2,3-dihydrobenzofuran-7-yl)oxy)-N-(4-methylthiazol-2-yl)acetamide]
In vitro
  CC50 at 48 h: > 100 µM
[1]
  EC50: 0.86 µM

## Cc1csc(N(C(=O)COc2cccc3c2OC(C)(C)C3)c2ccccc2C)n1 [Compound 60, 2-((2,2-Dimethyl-2,3-dihydrobenzofuran-7-yl)oxy)-N-(4-methylthiazol-2-yl)-N-(o-tolyl)acetamide]
In vitro
  CC50 at 48 h: > 100 µM
[1]
  EC50: 3.8 µM

## Cc1csc(N(C(=O)COc2cccc3c2OC(C)(C)C3)c2ccccc2Cl)n1 [Compound 61, N-(2-Chlorophenyl)-2-((2,2-dimethyl-2,3-dihydrobenzofuran-7-yl)oxy)-N-(4-methylthiazol-2-yl)acetamide]
In vitro
  CC50 at 48 h: > 100 µM
[1]
  EC50: 2.17 µM

## COc1ccc(N(C(=O)COc2cccc3c2OC(C)(C)C3)c2nc(C)cs2)cc1 [Compound 62, 2-((2,2-Dimethyl-2,3-dihydrobenzofuran-7-yl)oxy)-N-(4-methoxyphenyl)-N-(4-methylthiazol-2-yl)acetamide]
In vitro
  CC50 at 48 h: > 100 µM
[1]
  EC50: 0.48 µM

## C=CCN(C(=O)COc1cccc2c1OC(C)(C)C2)c1nc(C)cs1 [Compound 63, N-Allyl-2-((2,2-dimethyl-2,3-dihydrobenzofuran-7-yl)oxy)-N-(4-methylthiazol-2-yl)acetamide]
In vitro
  CC50 at 48 h: > 100 µM
[1]
  EC50: 0.19 µM

## Cc1ccc(N(C(=O)COc2cccc3c2OC(C)(C)C3)c2nc(C)cs2)cc1 [Compound 64, 2-((2,2-Dimethyl-2,3-dihydrobenzofuran-7-yl)oxy)-N-(4-methylthiazol-2-yl)-N-(p-tolyl)acetamide]
In vitro
  CC50 at 48 h: > 100 µM
[1]
  EC50: 0.57 µM

## Cc1csc(N(C(=O)COc2cccc3c2OC(C)(C)C3)c2cccnc2)n1 [Compound 65, 2-((2,2-Dimethyl-2,3-dihydrobenzofuran-7-yl)oxy)-N-(4-methylthiazol-2-yl)-N-(pyridin-3-yl)acetamide]
In vitro
  CC50 at 48 h: > 125 µM
[1]
  EC50: 0.88 µM

## CC1(C)Cc2cccc(OCC(=O)Nc3ccc(Br)cn3)c2O1 [Compound 66, N-(5-Bromopyridin-2-yl)-2-((2,2-dimethyl-2,3-dihydrobenzofuran-7-yl)oxy) acetamide]
In vitro
  CC50 at 48 h: > 125 µM
[1]
  EC50: 3.4 µM

## C=Cc1ccc(NC(=O)COc2cccc3c2OC(C)(C)C3)nc1 [Compound 67, 2-((2,2-dimethyl-2,3-dihydrobenzofuran-7-yl)oxy)-N-(5-vinylpyridin-2-yl)acetamide]
In vitro
  CC50 at 48 h: > 125 µM
[1]
  EC50: 2.2 µM

## CCc1ccc(NC(=O)COc2cccc3c2OC(C)(C)C3)nc1 [Compound 68, 2-((2,2-dimethyl-2,3-dihydrobenzofuran-7-yl)oxy)-N-(5-ethylpyridin-2-yl)acetamide]
In vitro
  CC50 at 48 h: > 125 µM
[1]
  EC50: 0.54 µM

## C=C(C)c1ccc(NC(=O)COc2cccc3c2OC(C)(C)C3)nc1 [Compound 69, 2-((2,2-Dimethyl-2,3-dihydrobenzofuran-7-yl)oxy)-N-(5-(prop-1-en-2-yl)pyridin-2-yl)acetamide]
In vitro
  CC50 at 48 h: > 125 µM
[1]
  EC50: 5 µM

## CC(C)c1ccc(NC(=O)COc2cccc3c2OC(C)(C)C3)nc1 [Compound 70, 2-((2,2-Dimethyl-2,3-dihydrobenzofuran-7-yl)oxy)-N-(5-isopropylpyridin-2-yl)acetamide]
In vitro
  CC50 at 48 h: > 125 µM
[1]
  EC50: 0.89 µM

## CC1(C)Cc2cccc(OCC(=O)Nc3ccc(C4CC4)cn3)c2O1 [Compound 71, N-(5-Cyclopropylpyridin-2-yl)-2-((2,2-dimethyl-2,3-dihydrobenzofuran-7-yl)oxy)acetamide]
In vitro
  CC50 at 48 h: > 125 µM
[1]
  EC50: 0.15 µM

## Cc1nc(NC(=O)COc2cccc3c2OC(C)(C)C3)ccc1Br [Compound 72, N-(5-Bromo-6-methylpyridin-2-yl)-2-((2,2-dimethyl-2,3-dihydrobenzofuran-7-yl)oxy)acetamide]
In vitro
  CC50 at 48 h: > 100 µM
[1]
  EC50: 1.4 µM

## Cc1ccc(NC(=O)COc2cccc3c2OC(C)(C)C3)nc1C [Compound 73, 2-((2,2-Dimethyl-2,3-dihydrobenzofuran-7-yl)oxy)-N-(5,6-dimethylpyridin-2-yl)acetamide]
In vitro
  CC50 at 48 h: > 100 µM
[1]
  EC50: 0.21 µM

## C=Cc1ccc(NC(=O)COc2cccc3c2OC(C)(C)C3)nc1C [Compound 74, 2-((2,2-Dimethyl-2,3-dihydrobenzofuran-7-yl)oxy)-N-(6-methyl-5-vinylpyridin-2-yl)acetamide]
In vitro
  CC50 at 48 h: > 125 µM
[1]
  EC50: 1.3 µM

## CCc1ccc(NC(=O)COc2cccc3c2OC(C)(C)C3)nc1C [Compound 75, 2-((2,2-Dimethyl-2,3-dihydrobenzofuran-7-yl)oxy)-N-(5-ethyl-6-methylpyridin-2-yl)acetamide]
In vitro
  CC50 at 48 h: 120 µM
[1]
  EC50: 0.21 µM

## Cc1cc(NC(=O)COc2cccc3c2OC(C)(C)C3)ncc1Br [Compound 76, N-(5-Bromo-4-methylpyridin-2-yl)-2-((2,2-dimethyl-2,3-dihydrobenzofuran-7-yl)oxy)acetamide]
In vitro
  CC50 at 48 h: > 125 µM
[1]
  EC50: 23 µM

## Cc1cnc(NC(=O)COc2cccc3c2OC(C)(C)C3)cc1C [Compound 77, 2-((2,2-Dimethyl-2,3-dihydrobenzofuran-7-yl)oxy)-N-(4,5-dimethylpyridin-2-yl)acetamide]
In vitro
  CC50: > 125 µM
  CC50 at 48 h: > 125 µM
[1]
  EC50: > 25 µM
  activity at 100 µM: 21%

## CN(C(=O)COc1cccc2c1OC(C)(C)C2)c1ccc(Br)cn1 [Compound 78, N-(5-Bromopyridin-2-yl)-2-((2,2-dimethyl-2,3-dihydrobenzofuran-7-yl)oxy)-N-methylacetamide]
In vitro
  CC50 at 48 h: > 125 µM
[1]
  EC50: 17 µM

## C=Cc1ccc(N(C)C(=O)COc2cccc3c2OC(C)(C)C3)nc1 [Compound 79, 2-((2,2-Dimethyl-2,3-dihydrobenzofuran-7-yl)oxy)-N-methyl-N-(5-vinylpyridin-2-yl)acetamide]
In vitro
  CC50 at 48 h: > 125 µM
[1]
  EC50: 5 µM

## CCc1ccc(N(C)C(=O)COc2cccc3c2OC(C)(C)C3)nc1 [Compound 80, 2-((2,2-Dimethyl-2,3-dihydrobenzofuran-7-yl)oxy)-N-(5-ethylpyridin-2-yl)-N-methylacetamide]
In vitro
  CC50 at 48 h: > 125 µM
[1]
  EC50: 4.6 µM

## CN(C(=O)COc1cccc2c1OC(C)(C)C2)c1ccc(Cl)nn1 [Compound 81, N-(6-Chloropyridazin-3-yl)-2-((2,2-dimethyl-2,3-dihydrobenzofuran-7-yl)oxy)-N-methylacetamide]
In vitro
  CC50: > 125 µM
  CC50 at 48 h: > 125 µM
[1]
  EC50: > 25 µM
  activity at 100 µM: 67%

## C=Cc1ccc(N(C)C(=O)COc2cccc3c2OC(C)(C)C3)nn1 [Compound 82, 2-((2,2-Dimethyl-2,3-dihydrobenzofuran-7-yl)oxy)-N-methyl-N-(6-vinylpyridazin-3-yl)acetamide]
In vitro
  CC50 at 48 h: > 125 µM
[1]
  EC50: 5.9 µM

## CCc1ccc(N(C)C(=O)COc2cccc3c2OC(C)(C)C3)nn1 [Compound 83, 2-((2,2-Dimethyl-2,3-dihydrobenzofuran-7-yl)oxy)-N-(6-ethylpyridazin-3-yl)-N-methylacetamide]
In vitro
  CC50 at 48 h: > 125 µM
[1]
  EC50: 13 µM

## C=Cc1ccc(NC(=O)COc2cccc3c2OC(C)(C)C3)nn1 [Compound 84, 2-((2,2-Dimethyl-2,3-dihydrobenzofuran-7-yl)oxy)-N-(6-vinylpyridazin-3-yl)acetamide]
In vitro
  CC50 at 48 h: > 100 µM
[1]
  EC50: 0.89 µM

## CCc1ccc(NC(=O)COc2cccc3c2OC(C)(C)C3)nn1 [Compound 85, 2-((2,2-Dimethyl-2,3-dihydrobenzofuran-7-yl)oxy)-N-(6-ethylpyridazin-3-yl)acetamide]
In vitro
  CC50 at 48 h: > 100 µM
[1]
  EC50: 0.38 µM

## C=C(C)c1ccc(NC(=O)COc2cccc3c2OC(C)(C)C3)nn1 [Compound 86, 2-((2,2-Dimethyl-2,3-dihydrobenzofuran-7-yl)oxy)-N-(6-(prop-1-en-2-yl)pyridazin-3-yl)acetamide]
In vitro
  CC50 at 48 h: > 100 µM
[1]
  EC50: 1.1 µM

## CC(C)c1ccc(NC(=O)COc2cccc3c2OC(C)(C)C3)nn1 [Compound 87, 2-((2,2-Dimethyl-2,3-dihydrobenzofuran-7-yl)oxy)-N-(6-isopropylpyridazin-3-yl)acetamide]
In vitro
  CC50 at 48 h: > 100 µM
[1]
  EC50: 0.58 µM

Reference: patent US20220411419A1, “SMALL MOLECULE MODULATORS OF MHC-I” (RetroVirox, Inc., priority 2018, published 2022)
